{"source": "PubChem BioAssay AID2305", "about": "(GlaxoSmithKline (GSK), 2010)", "data": [{"system": "P. falciparum 3D7 growth, pLDH absorbance", "assay": "P. falciparum 3D7 growth inhibition, dose response, strain 3D7 (AID 2305)", "units": {"IC50": "nM"}, "values": [{"smiles": "O=C(/C=C/c1ccc(CNCCN2CCOCC2)cc1)NCCc1ccccc1", "IC50": 860}, {"smiles": "NC1CCN(c2nc(NCCc3ccc(O)cc3)nc(NCc3ccccc3-c3ccccc3)n2)CC1", "IC50": 820}, {"smiles": "CN(Cc1cccc(C#N)c1)C1CCN(c2cc(NC(=O)c3ccc(F)cc3)ccn2)CC1", "IC50": 1070}, {"smiles": "NC(=O)c1ccsc1NC(=O)CNC(c1ccccc1)c1ccc(Cl)cc1", "note": "(configuration not stated)", "IC50": 260}, {"smiles": "Cc1cccc2[nH]c(-c3cccc(-c4ccc(NC(=O)C(C)CN5CCOCC5)cc4)c3)nc12", "note": "(configuration not stated)", "IC50": 690}, {"smiles": "C/C(=C\\C(=O)NC1CC1)c1ccccc1OCc1ccccc1", "IC50": 500}, {"smiles": "COc1ccc(NC(=O)Nc2ccc(C)c(-c3ccc(C(=O)NCCN4CCCC4)cc3)c2)cc1", "IC50": 900}, {"smiles": "Cc1[nH]c2ccccc2c1C(=O)C(C)Sc1n[nH]c(-c2ccccc2Br)n1", "note": "(configuration not stated)", "IC50": 30}, {"smiles": "COC(=O)c1cccc(CNCc2cccc(-c3ccc(-c4nc5ccccc5[nH]4)s3)c2)c1", "IC50": 490}, {"smiles": "Nc1ncnc2cc(-c3cccc(S(N)(=O)=O)c3)sc12", "IC50": 150}, {"smiles": "Cc1ccc(O)cc1Nc1ccnc2ccc(C(C)(C)C)cc12", "IC50": 1250}, {"smiles": "COc1ccc(N(C)Cc2cnc3nc(N)nc(N)c3n2)cc1", "IC50": 280}, {"smiles": "O=C(c1cccc(-c2ccc(-c3nc4ccc(C(F)(F)F)cc4[nH]3)cc2)c1)N1CCCCC1CN1CCC(O)C1", "note": "(configuration not stated)", "IC50": 470}, {"smiles": "Cc1ccc2[nH]c(C)c(Br)c(=O)c2c1", "IC50": 810}, {"smiles": "CC(CCc1ccccc1)NCC(O)c1ccc2c3c(cccc13)C(=O)N2C", "note": "(configuration not stated)", "IC50": 810}, {"smiles": "COc1cc(Nc2ccnc3ccc(C(F)(F)F)cc23)cc(OC)c1OC", "IC50": 700}, {"smiles": "Oc1ccc(CN2CCN(CCOC(c3ccccc3)c3ccc(Cl)cc3)CC2)cc1Cl", "note": "(configuration not stated)", "IC50": 860}, {"smiles": "CCC(=O)N1CCc2cc(Br)cc(S(=O)(=O)N3CC(C)CC(C)C3)c21", "note": "(configuration not stated)", "IC50": 930}, {"smiles": "O=S(=O)(NCCN1CCCC1)c1ccc(-c2ccc(CNCc3ccsc3)cc2)cc1", "IC50": 850}, {"smiles": "Cc1cc(Nc2cccc(C(F)(F)F)c2)nc2ccc(NC(=O)c3ccc(=O)[nH]c3)cc12", "IC50": 490}, {"smiles": "CN(c1ccnc(Nc2ccc(CS(C)(=O)=O)cc2)n1)C1CCN(Cc2ccccc2)CC1", "IC50": 1400}, {"smiles": "N#Cc1cccc(C(=O)NC2CCN(c3ccnc(Nc4ccc(F)cc4)n3)C2)c1", "note": "(configuration not stated)", "IC50": 400}, {"smiles": "Cc1ccccc1N1CCN(c2ncc(C(=O)NC3CC3)cc2Cl)CC1", "IC50": 630}, {"smiles": "COc1c(C2CCN(CCCCNC(=O)c3ccc(-c4ccc(Cl)cc4)cc3)CC2)ccc2c1C(C)(C)CCC2(C)C", "IC50": 780}, {"smiles": "CCCCCCn1c(Sc2ccc(C#N)c([N+](=O)[O-])c2)nnc1-c1ccc(OC)cc1", "IC50": 850}, {"smiles": "O=C(Nc1ccccc1Cl)N(Cc1cc(Cl)cc(Cl)c1)CC(O)COc1ccc(Cl)c(F)c1", "note": "(configuration not stated)", "IC50": 790}, {"smiles": "O=C(CCc1ccccc1)N[C@H](Cc1c[nH]c2ccccc12)C(=O)N1CCC(NCc2ccc3c(c2)Cc2ccccc2-3)CC1", "IC50": 910}, {"smiles": "NS(=O)(=O)c1cccc(-c2ccc3ncc(N4CCOCC4)nc3c2)c1", "IC50": 990}, {"smiles": "CC(C)(C)Cn1cc(-c2ccc(C(=O)NCCc3ccc(S(C)(=O)=O)cc3)cc2)c(N)n1", "note": "(tested in a mixture with another compound)", "IC50": 650}, {"smiles": "Nc1ccc(-c2ccc3ccnc(N)c3c2)cn1", "IC50": 350}, {"smiles": "CN1CCC(C(=O)N(Cc2ccc(-c3ccc(CNCCc4ccc(S(C)(=O)=O)cc4)cn3)cc2)C2Cc3ccccc3C2)CC1", "IC50": 660}, {"smiles": "O=S(=O)(NCCN1CCCC1)c1cccc(-c2cccc(CNCc3ccc(F)cc3)c2)c1", "IC50": 850}, {"smiles": "COc1ccc(-c2ncnc(C(F)(F)F)c2-c2ccc(Cl)cc2)c(O)c1", "IC50": 800}, {"smiles": "Cc1cc(=O)[nH]c(/N=C(/N)NOCCCc2ccccc2)n1", "IC50": 760}, {"smiles": "CC(=O)c1cc(N2CCOCC2)ccc1N", "IC50": 910}, {"smiles": "O=C(NCc1ccccc1S(=O)c1ccccc1CO)C(F)(F)F", "note": "(configuration not stated)", "IC50": 180}, {"smiles": "CN1CCCN(Cc2ccc(-c3ccc(NC(=O)c4ccc(Cl)cc4)cc3)cc2)CC1", "IC50": 900}, {"smiles": "COC(=O)c1cccc(CNCc2cccc(-c3cccc(-c4nc5ccccc5[nH]4)c3)c2)c1", "IC50": 500}, {"smiles": "CCOc1ccccc1[C@H]1[C@H](C(=O)C(C)(C)C)N2c3ccc(Br)cc3C=CC2C12C(=O)c1ccccc1C2=O", "note": "(some centres not stated)", "IC50": 850}, {"smiles": "O=S(=O)(c1cc(Cl)ccc1Cl)N1CCCCC(c2ccc(C(F)(F)F)cc2)=N1", "IC50": 1000}, {"smiles": "Cc1cccc2[nH]c(-c3ccc(-c4ccc(CN5CCN(CCN6CCOCC6)CC5)cc4)s3)nc12", "IC50": 240}, {"smiles": "CCN(CC)CCCC(C)Nc1c2cc(OC)ccc2nc2cc(Cl)c([N+](=O)[O-])cc12", "note": "(configuration not stated)", "IC50": 790}, {"smiles": "CC1CCc2sc(-c3nnc(SC(C)C(=O)NC4CC4)o3)cc2C1", "note": "(configuration not stated)", "IC50": 1210}, {"smiles": "CC(O)c1cccc(-c2ccc(Nc3ccnc4cc(-c5nccs5)ccc34)cc2)c1", "note": "(configuration not stated)", "IC50": 1010}, {"smiles": "CCOc1cc(C)ccc1C1CCN(CCCCNC(=O)c2cccc(-c3ccc(C(F)(F)F)cc3)c2)CC1", "IC50": 940}, {"smiles": "COc1cc(CNC[C@@H](O)[C@H](Cc2ccccc2)NC(=O)c2cc(C3CCCC3)cc(N3CCCC3=O)c2)cc(OC)c1", "IC50": 220}, {"smiles": "O=C(NC1CCC(CN2CCC(c3c[nH]c4ccccc34)CC2)CC1)c1cc(-c2ccc(F)cc2F)ccc1O", "note": "(configuration not stated)", "IC50": 360}, {"smiles": "CN(c1ccccc1C(=O)Nc1cc(Cl)ccc1Oc1ccccc1)S(=O)(=O)c1ccccc1", "IC50": 740}, {"smiles": "Nc1ccc(Nc2ccnc3ccc(C(F)(F)F)cc23)cc1O", "IC50": 720}, {"smiles": "Cc1cc(NC(=O)c2cc(Br)ccc2Cl)n(-c2nc(C)c(C)c(=O)[nH]2)n1", "IC50": 1130}, {"smiles": "O=C(Nc1cccc(-c2csc(-c3nc4ccccc4[nH]3)c2)c1)c1ccncc1", "IC50": 260}, {"smiles": "Cn1c(NC(=O)c2ccc(CNC(=O)c3ccc(O)c(-c4ccc(Cl)c(Cl)c4)c3)cc2)nc2ccccc21", "IC50": 840}, {"smiles": "CCOc1cc(C)ccc1C1CCN(CCCCNC(=O)c2cnc(-c3ccc(C(F)(F)F)cc3)[nH]2)CC1", "IC50": 770}, {"smiles": "ON=C1CCc2cc(-c3cc(-c4ccc(OC5CCNCC5)cc4)oc3-c3ccncc3)ccc21", "IC50": 160}, {"smiles": "NC1(C(=O)O)Cc2ccc(Cl)cc2C1", "note": "(configuration not stated)", "IC50": 730}, {"smiles": "O=C(Nc1ccc2c(c1)CCC2)c1cnc(N2CCN(c3ccncc3)CC2)c(Cl)c1", "IC50": 1110}, {"smiles": "CN(C)C[C@H](O)[C@@H](c1ccccc1)c1ccc(Cl)cc1", "IC50": 50}, {"smiles": "Cn1cncc1CCN(Cc1ccc(-c2ccc(C(F)(F)F)cc2)cc1)C(=O)Cn1c(CCc2cccc(F)c2F)cc(=O)c2cccnc21", "IC50": 850}, {"smiles": "CCC(=Cc1cccc([N+](=O)[O-])c1)C(=O)NCC1CCN(c2nc(N)c3cc(OC)c(OC)cc3n2)CC1", "IC50": 240}, {"smiles": "CC(C)c1cc2c(ccc3nc(N)nc(N)c32)[nH]1", "IC50": 40}, {"smiles": "CC(=O)Nc1cccc(C(=O)Nc2ccc(-c3cccc(-c4nc5c(C)cccc5[nH]4)c3)cc2)c1", "IC50": 790}, {"smiles": "CCN(CC)CCN(Cc1ccc(-c2ccc(C(F)(F)F)s2)cc1)C(=O)Cn1c(CCc2cccc(F)c2F)nc(=O)c2ccccc21", "IC50": 990}, {"smiles": "FC(F)(F)c1cccc(CCNc2nccc(NCc3ccccc3Cl)n2)c1", "IC50": 1170}, {"smiles": "O=S(=O)(NCCN1CCCC1)c1cccc(-c2ccc(CNCc3ccc(F)cc3)cc2)c1", "IC50": 230}, {"smiles": "O=c1[nH]c(NCCCCCN2CCC(c3c[nH]c4ccccc34)CC2)ncc1Cc1ccc(Cl)c(Cl)c1", "IC50": 970}, {"smiles": "CN1CCCC(CN2CCN(Cc3ccc(-c4ccc(-c5nc6ccccc6[nH]5)cc4)cc3)CC2)C1", "note": "(configuration not stated)", "IC50": 140}, {"smiles": "CC(C)CCN(Cc1cncn1Cc1cccc(C(F)(F)F)c1)C(=O)c1ccccc1C#N", "IC50": 610}, {"smiles": "N#Cc1ccc2c(c1)CCN(CCC1CCC(Nc3ncnc4ccccc34)CC1)C2", "note": "(configuration not stated)", "IC50": 630}, {"smiles": "CCCCc1ccc(S(=O)(=O)Nc2ccc3c(c2)CCN(Cc2c[nH]c4cnccc24)CC3)cc1", "IC50": 670}, {"smiles": "CC(C)CNCc1ccc(-c2cccc(CNC3CCN(Cc4ccccc4)CC3)c2)cc1", "IC50": 240}, {"smiles": "O=C(Nc1ccc(CCNC2=NCCN2)cc1)Nc1ccc(CCNC2=NCCN2)cc1", "IC50": 790}, {"smiles": "NCC1CCCN1Cc1cccc(-c2cccc(-c3nc4ccc(F)cc4[nH]3)c2)c1", "note": "(configuration not stated)", "IC50": 810}, {"smiles": "O=C(Cc1cccc(Cl)c1)Nc1cccc(-c2c[nH]c3nc(Nc4cccc(OCc5ccccc5)c4)ncc23)c1", "IC50": 1040}, {"smiles": "CCCCCOc1ccc(N2C(N)=NC(N)=NC2(C)C)cc1", "IC50": 200}, {"smiles": "CC(C)(C)NCCN(Cc1ccc(-c2ccc(C(F)(F)F)cc2)cc1)C(=O)Cn1c(SCc2ccc(F)cc2)nc(=O)c2c1CCC2", "IC50": 860}, {"smiles": "O=C(Nc1ccc(-c2ccc(CN3CCNCC3)cc2)cc1)c1cccc(Cl)c1", "IC50": 890}, {"smiles": "CO/C(=C\\C=C\\c1cc2cc(Cl)c(Cl)cc2[nH]1)C(=O)NCCCN1CCN(c2cccc(CCO)c2)CC1", "IC50": 720}, {"smiles": "O=C(Nc1ccc(OC2CCN(Cc3ccc(F)cc3)C2)cc1)c1cccs1", "note": "(configuration not stated)", "IC50": 640}, {"smiles": "Cn1cncc1C(=O)Nc1cccc(-c2cccc(-c3nc4ccc(C(F)(F)F)cc4[nH]3)c2)c1", "IC50": 200}, {"smiles": "NC1CCN(c2nc(NCCCc3ccc(O)cc3)nc(NCc3cccc4ccccc34)n2)CC1", "IC50": 720}, {"smiles": "COc1ccc(CNC2CCN(C)CC2)cc1-c1ccc(S(=O)(=O)NCCc2ccccn2)c(C)c1", "IC50": 1150}, {"smiles": "CS(=O)(=O)c1ccccc1CNC(=O)c1ccc(-c2ccc(-c3nc4ccc(C(F)(F)F)cc4[nH]3)s2)cc1", "IC50": 240}, {"smiles": "Cc1cc(N2CCCCC2)nc2ccc(NC(=O)c3cc(=O)c4ccccc4o3)cc12", "IC50": 720}, {"smiles": "Cc1ccc(Nc2nc(C)cc(NCc3ccc(-n4ccnc4)cc3)n2)cc1", "IC50": 1010}, {"smiles": "Oc1ccc(CCNc2nc(NCCOc3ccccc3-c3ccccc3)nc(N3CCNCC3)n2)cc1", "IC50": 1040}, {"smiles": "COc1ccc(-c2ccc(NC(=O)c3ccc(C#N)cc3)cc2)cc1CN1CCN(C)CC1", "IC50": 720}, {"smiles": "CCN(Cc1ccccc1)C1CCN(Cc2cc(Br)ccc2O)CC1", "IC50": 820}, {"smiles": "CN1CCC(NCc2ccc(-c3cccc(-c4nc5ccccc5[nH]4)c3)cc2)CC1", "IC50": 130}, {"smiles": "Cc1nc(-c2cccc(C(=O)N(Cc3cncn3Cc3cccc(C(F)(F)F)c3)CC3CC3)c2)cs1", "IC50": 940}, {"smiles": "Fc1ccc2nc(-c3ccc(-c4ccc(CN5CCCCC5)cc4)s3)[nH]c2c1", "IC50": 600}, {"smiles": "O=C(NCCCCN1CCC(c2ccc3c(c2OCCOCCO)CCCC3)CC1)c1ccc(-c2ccc(C(F)(F)F)cc2)cc1", "IC50": 280}, {"smiles": "Cc1cccc2[nH]c(-c3cccc(-c4ccc(CN5CCCC5CN)cc4)c3)nc12", "note": "(configuration not stated)", "IC50": 760}, {"smiles": "COc1ccc(-n2nc(C)cc2C(=O)NCc2ccc(-c3c(C)noc3C)cc2)cc1", "IC50": 980}, {"smiles": "Cc1nc(-c2ccccc2)nc(N2CCN(C(=O)c3ccco3)CC2)c1Cc1ccccc1F", "IC50": 930}, {"smiles": "O=c1cc(NCCCNCc2cc(F)cc(C(F)(F)F)c2)[nH]c2ccccc12", "IC50": 1200}, {"smiles": "CCc1cn2c3c(cc(C(=O)N[C@@H](Cc4cccc(Cl)c4)[C@H](O)CNC4CCOCC4)cc13)N(C)S(=O)(=O)CC2", "IC50": 40}, {"smiles": "Fc1ccc(C=NNc2nc3ccccc3[nH]2)cc1", "IC50": 780}]}]}
